Source: patent US10202406B2, “Boron cluster compounds and uses thereof” (priority 2011, dated 2019)
Entries after “also recorded” stand apart in the source; their conditions may differ.

How the values were obtained:
[1] = biological target: T1, Nav1.2 voltage gated sodium channels (Homo sapiens, UniProt Q99250); assay: Two electrode voltage clamp electrophysiology of voltage gated sodium channels expressed in Xenopus oocytes; format: cell-based; settings: 0.3 mM in superfusate for two minutes then washed out; holding potential -50 mV; Nav1.2 in Xenopus oocytes
T1 construct: expressed in transfected cells; host or cells: Xenopus oocytes
Experimental: Nav1.2 voltage gated sodium channels were expressed in Xenopus oocytes and standard two electrode voltage clamp techniques were used to measure ionic currents through the channels after depolarizations from a holding potential of −50 mV. The test drugs, all at a concentration of 0.3 mM, were added to the superfusate for two minutes as indicated by the black bars and then washed out. […] Data are expressed as means±standard error of the mean and n equals the number of cells used in FIG. 4 (a)-(d).

[2] = tested on: mice; assay: Hot plate paw withdrawal latency after injection into a hind limb near the sciatic nerve; format: in vivo; settings: 50 microliters of 10 mM injected into hind limb near sciatic nerve, 55° C. hot plate, about 30 min
Experimental: The test drugs, all at a volume of 50 microliters and a concentration of 10 mM, were injected into a hind limb near the sciatic nerve. The time it takes for the animals to withdraw the foot of the injected limb from touching a 55° C. hot plate is measured in seconds. This time is termed the paw withdrawal latency and is measured over about a 30 min time period. Data are expressed as means±standard error of the mean and n equals the number of animals used in FIG. 5(a)-(d).

[3] = tested on: mice; assay: Motor deficit testing, inverted screen test after injection; settings: sensory block (hot plate) versus motor block (inverted screen test)
Experimental: Motor function was tested by observing the ability of the mice to walk hanging upside down from a screen, termed the inverted screen test.

T1 sequence (Q99250 whole entry): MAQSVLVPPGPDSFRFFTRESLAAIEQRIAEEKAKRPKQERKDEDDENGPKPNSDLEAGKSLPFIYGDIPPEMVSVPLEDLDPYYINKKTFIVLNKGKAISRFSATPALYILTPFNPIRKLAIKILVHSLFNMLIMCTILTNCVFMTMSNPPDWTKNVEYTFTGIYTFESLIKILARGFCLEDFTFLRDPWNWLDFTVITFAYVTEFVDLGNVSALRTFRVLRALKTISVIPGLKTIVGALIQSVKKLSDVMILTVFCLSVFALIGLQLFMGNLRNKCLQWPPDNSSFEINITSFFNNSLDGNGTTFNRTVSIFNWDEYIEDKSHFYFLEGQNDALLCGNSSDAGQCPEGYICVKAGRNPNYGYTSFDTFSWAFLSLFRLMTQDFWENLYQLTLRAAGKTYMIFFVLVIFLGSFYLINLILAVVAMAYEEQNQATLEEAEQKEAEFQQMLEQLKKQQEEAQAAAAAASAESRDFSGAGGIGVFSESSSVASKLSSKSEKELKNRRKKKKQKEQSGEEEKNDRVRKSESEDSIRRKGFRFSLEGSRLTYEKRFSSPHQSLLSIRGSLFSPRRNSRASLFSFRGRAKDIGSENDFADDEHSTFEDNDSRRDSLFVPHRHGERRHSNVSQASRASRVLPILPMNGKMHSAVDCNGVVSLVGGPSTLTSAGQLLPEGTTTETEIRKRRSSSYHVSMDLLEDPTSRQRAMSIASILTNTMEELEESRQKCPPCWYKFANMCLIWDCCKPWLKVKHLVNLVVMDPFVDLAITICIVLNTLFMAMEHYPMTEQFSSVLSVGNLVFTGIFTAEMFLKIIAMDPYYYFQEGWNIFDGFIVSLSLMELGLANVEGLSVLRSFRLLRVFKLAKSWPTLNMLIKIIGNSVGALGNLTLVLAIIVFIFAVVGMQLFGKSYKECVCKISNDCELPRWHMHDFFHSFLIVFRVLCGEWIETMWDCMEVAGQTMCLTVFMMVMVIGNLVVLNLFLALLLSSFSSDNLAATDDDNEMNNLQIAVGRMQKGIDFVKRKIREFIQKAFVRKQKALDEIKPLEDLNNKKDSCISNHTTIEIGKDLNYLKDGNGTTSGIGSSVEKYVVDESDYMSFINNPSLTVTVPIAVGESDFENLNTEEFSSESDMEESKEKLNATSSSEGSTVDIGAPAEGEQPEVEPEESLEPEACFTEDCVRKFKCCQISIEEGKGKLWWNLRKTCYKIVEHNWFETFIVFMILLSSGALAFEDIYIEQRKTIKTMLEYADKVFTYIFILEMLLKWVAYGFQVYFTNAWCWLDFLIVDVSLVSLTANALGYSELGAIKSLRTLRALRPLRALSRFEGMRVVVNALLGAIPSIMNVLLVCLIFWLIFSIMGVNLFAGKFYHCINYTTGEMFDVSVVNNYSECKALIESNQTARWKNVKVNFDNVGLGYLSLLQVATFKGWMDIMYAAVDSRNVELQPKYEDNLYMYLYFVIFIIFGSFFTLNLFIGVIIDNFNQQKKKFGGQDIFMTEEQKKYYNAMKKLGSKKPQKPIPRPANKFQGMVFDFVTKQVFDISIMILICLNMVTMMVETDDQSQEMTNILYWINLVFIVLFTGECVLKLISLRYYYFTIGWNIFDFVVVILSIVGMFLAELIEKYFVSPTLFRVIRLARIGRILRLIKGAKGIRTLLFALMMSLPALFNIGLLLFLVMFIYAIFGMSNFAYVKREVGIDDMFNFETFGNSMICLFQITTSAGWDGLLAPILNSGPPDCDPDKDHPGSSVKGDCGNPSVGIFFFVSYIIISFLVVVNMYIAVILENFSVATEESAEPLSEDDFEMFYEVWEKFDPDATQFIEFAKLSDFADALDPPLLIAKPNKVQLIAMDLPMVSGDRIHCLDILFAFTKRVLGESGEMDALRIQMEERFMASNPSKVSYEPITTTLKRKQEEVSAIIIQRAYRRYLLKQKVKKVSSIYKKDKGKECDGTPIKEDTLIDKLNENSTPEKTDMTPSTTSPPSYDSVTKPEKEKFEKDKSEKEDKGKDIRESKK

Row | Compound | block of voltage gated sodium channels (ionic currents) [1] | analgesia / sensory block (paw withdrawal latency) [2] | selectivity of block of sensory nerves over motor nerves [3]
1 | CCN(CC)CC(=O)Nc1c(C)cccc1C [lidocaine, reference compound] | block voltage gated sodium channels in a reversible manner | provide analgesia | –
2 | 3-Diethylaminoacetamido-1,2-closo-carborane [o-carborane lidocaine] | block voltage gated sodium channels in a reversible manner | provide analgesia | selectively blocked sensory nerves over motor nerves; also recorded: selective block of sensory nerves over motor nerves
3 | 2-Diethylaminoacetamido-1,12-closo-carborane [p-carborane lidocaine] | block voltage gated sodium channels in a reversible manner | provide analgesia | selectively blocked sensory nerves over motor nerves; also recorded: selective block of sensory nerves over motor nerves
4 | 9-Diethylaminoacetamido-1,7-closo-carborane [m-carborane lidocaine] | block voltage gated sodium channels in a reversible manner | did not provide analgesia; also recorded: neither motor nor sensory block | –
